Data as given in US20020137676A1, “Selective treatment of endothelial somatostatin receptors” (priority 1998, published 2002).
Ends that are not written are not given here.

Assays:
Assay type in all cases: cell-based, human
[1] = test system: Na/H exchanger on ECV304 cells; assay: Intracellular pH imaging of the Na/H exchanger
[2] = test system: ECV304 cells; assay: Actin cytoskeleton visualised with fluorescently labelled phalloidin; conditions: 10 nM, 37° C. for 30 min
Experimental: (§1) The cells were subsequently incubated at 37° C. for 30 min, fixed in 4% PFA for 5 min and washed in PBS. The actin cytoskeleton was visualized by incubating the cells with ALEXA-488 conjugated phalloidin (1:50, Molecular Probes Inc., Eugene, Oreg.) for 15 min at room temperature. Cells were screened using a Zeiss Axiophot microscope as previously described. Similar protocols were used to evaluate the effects SSTR1 selective ligands on endothelial cells.

[3] = test system: ECV304 cells; assay: ECV304/Matrigel in vitro angiogenesis model (capillary-like tube formation); conditions: sub-micromolar and higher concentrations; ECV304 on Matrigel
Source text: In one aspect, the present invention utilises an established model system for assaying the effect of SSTR ligands on human angiogenesis. In one embodiment, the model system comprises the spontaneously transformed human umbilical vein endothelial cell line, ECV304, grown on a Matrigel substrate (Hughes, 1996, Experimental Cell Research 225:171-185). Matrigel is a solubilized basement membrane extract that promotes the differentiation of endothelial cells into capillary tube-like structures in vitro. It has been shown that cytoskeletal reorganization occurs when human umbilical vein endothelial cells undergo the morphological changes associated with neovascular tube formation on a Matrigel substrate (Grant et al., 1991, In Vitro Cell Dev. Biol. 27A(4):327-36.). […] This assay can also be used to identify […] ligands that stimulate the process of angiogenesis. […]
ECV304 cells (3.5×10^4 in 0.5 mL complete M199 medium) were placed onto 24-well plates that were pre-coated with 0.125 mL of Matrigel (Becton-Dickinson). […] After 24 hours, images of tube-formation were recorded on film. Images were converted into a digital format using a Hewlett-Packard ScanJet 4C/T scanner, the summed length of capillary-like tubes was quantified using Optimas 6.1 image analysis software (Optimas Corp.).

[4] = test system: ECV304 or HUVEC cells; assay: Actin cytoskeleton effects of SSTR selective ligands on endothelial cells
Experimental: as §1

Substance	effect on Na/H exchanger [1]	actin stress fibres [2]	lamellipodia at the plasma membrane [2]	inhibition of neovascular growth [3]	actin stress fibres [4]	lamellipodia formation [4]
Somatostatin-14 (AGCKNFFWKTFTSC; ends and bridges not checked; cysteine pairing not given here; UniProt P61278 103-116, looked up) [SS14, native 14 amino acid form of somatostatin, an endogenous cyclic peptide; agonist of all somatostatin receptor subtypes]	inhibit	loss of long stress fibers	increase in the number and size of lamellipodia	significantly inhibit neovascular growth		
des-AA^1,2,5 [DTrp^8,IAamp^9]SS [SSTR1 '499 agonist]					decrease in stress fibres	increase in lamellipodia formation
